Test results: publication PMC9104508, “Antioxidant, Hypoglycemic and Molecular Docking Studies of Methanolic Extract, Fractions and Isolated Compounds from Aerial Parts of Cymbopogon citratus (DC.) Stapf” (Molecules, 2022)
Read-outs that look alike come from different tables or passages of the source. Marks after values point to notes of the source that are not given here.

How the values were obtained:
[1] = target: α-glucosidase (Saccharomyces cerevisiae, UniProt P53341); test: α-Glucosidase inhibition assay (pNPG substrate); format: biochemical; conditions: for inhibition at 20 µM: read-out: α-Glucosidase Inhibitory Rate
Sequence of α-glucosidase (P53341 whole entry): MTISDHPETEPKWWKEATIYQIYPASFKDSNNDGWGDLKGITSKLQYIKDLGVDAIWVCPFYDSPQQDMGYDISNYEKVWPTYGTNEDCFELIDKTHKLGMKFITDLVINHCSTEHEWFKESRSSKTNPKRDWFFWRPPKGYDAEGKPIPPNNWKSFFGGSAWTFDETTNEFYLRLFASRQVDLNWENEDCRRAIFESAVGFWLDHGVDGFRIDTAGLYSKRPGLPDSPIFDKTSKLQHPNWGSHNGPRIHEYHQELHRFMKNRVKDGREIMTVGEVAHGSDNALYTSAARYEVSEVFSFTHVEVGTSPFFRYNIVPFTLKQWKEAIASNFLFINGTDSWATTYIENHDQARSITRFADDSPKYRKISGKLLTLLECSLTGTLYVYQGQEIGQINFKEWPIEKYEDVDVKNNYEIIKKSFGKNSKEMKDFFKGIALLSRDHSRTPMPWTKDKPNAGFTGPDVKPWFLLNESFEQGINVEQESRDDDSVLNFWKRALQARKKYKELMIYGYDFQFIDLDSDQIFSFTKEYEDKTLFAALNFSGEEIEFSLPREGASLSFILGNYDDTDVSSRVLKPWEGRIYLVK
Method: The α-glucosidase inhibitory activity was measured according to the procedure described in the paper, with slight modifications. […] Immediately, 40 μL PNPG (2.5 mM) was added to each well and reacted at 37 °C for 30 min. […] The total volume of the reaction system was 200 μL. The α-glucosidase inhibition activity was calculated according to the following formula:Inhibition (%) = [1 − (A1 − A2)/(A3 − A4)] × 100(2) A1 = the absorbance of the sample group with α-glucosidase, A2 = the absorbance of the sample control group without α-glucosidase, A3 = the absorbance of the control group without samples, and A4 = the absorbance of the blank control without samples and α-glucosidase.
Results were expressed as IC50 values calculated according to Prism7.0 software.

[2] = DPPH free radical scavenging assay; conditions: compounds; 30 min, room temperature
Method: (§1) The antioxidant activities of the crude extracts and isolated compounds were evaluated by implementing 2,2-diphenyl-1-picrylhydrazyl free radical scavenging (DPPH^+), 2,2’-azino-bis (3-ethylbenzothiazoline-6-sulphonic free radical scavenging (ABTS^+), and the ferric reducing antioxidant power (FRAP) assay.
The DPPH^+ assay was measured according to the previous report with slight modifications. […] The DPPH^+ was dissolved with anhydrous methanol to 0.1 mM.
Then 180 μL DPPH solution and 20 μL sample were mixed in each well of a 96-well plate and incubated for 30 min at room temperature in the dark. […] Ascorbic acid was used as a positive control. The DPPH^+ scavenging activity was calculated according to the following formula:Inhibition (%) = [1 − (A1 − A2)/(A3 − A4)] × 100(1) A1 = absorbance of the sample group with DPPH, A2 = absorbance of the sample control group without DPPH, A3 = absorbance of the control group with DPPH, and A4 = the absorbance of the blank control.

[3] = ABTS free radical scavenging assay (commercial kit, Trolox standard); conditions: compounds
Method: as §1
(§2) ABTS^+ and FRAP assays were measured by commercial assay kits (Suzhou Comin Biotechnology Co., Ltd., Suzhou, China). The experimental method was determined according to the method used in the literature. The crude extracts and chemical compounds were dissolved in anhydrous ethanol at concentrations of 800 μg/mL and 40 μM. […] Trolox was used as a standard reference compound to quantitate ABTS^+ and FRAP capacity. The results were expressed in µmol Trolox/g or mol Trolox/mol. The standard curve was drawn using Trolox solutions at a range of concentrations.

[4] = Ferric reducing antioxidant power (FRAP) assay (commercial kit, Trolox standard); conditions: compounds
Method: as §1, §2

[5] = tested on: 3T3-L1 adipocytes; test: Glucose uptake in 3T3-L1 adipocytes; format: cell-based, mouse
Method: The 3T3-L1 preadipocytes were cultured and differentiated using the method described earlier with slight modifications. The 3T3-L1 preadipocytes were cultured in high glucose DMEM supplemented with 10% NBCS, 1% P/S, and then starved until the cells reached confluence (day 0). Two days later (day 2), the cells were induced for differentiation with high glucose DMEM supplemented with 10% FBS, 1% P/S, IBMX, DEX, Rosi, and insulin. On day 5, the medium was changed to high glucose DMEM containing 10% FBS, 1% P/S, and 100 nM insulin for one day (day 6). Then the cells were completely differentiated into mature adipocytes.
The glucose uptake test was carried out according to the procedure described in the paper. […] After 48 h of culture, the glucose uptake was measured according to the operating instructions of the glucose content determination kit. Following the glucose uptake test, the cell viability was determined using the CellTiter 96® aqueous cell proliferation test. […] Then the absorbance was measured using microplate reader at 490 nm after incubation at 37 °C for 4 h. The cell viability was calculated according to the following formula:Cell viability rate (%) = […] × 100 (3) A1 = the absorbance of the blank control, A2 = the absorbance of each fraction group, each compound group, or positive control group.

Row | Compound | α-Glucosidase Inhibitory Rate ([1]; at a concentration of 20 μM) [%] | IC50 [2] [µM] | ABTS Assay, Trolox equivalents [3] | inhibition at 20 µM ([1]; at a concentration of 20 μM) [%] | FRAP Assay, Trolox equivalents [4] | inhibition at 20 µM [1] [%] | glucose uptake in 3T3-L1 adipocytes ([5]; compounds at 20 μM, 48 h, versus control) | glucose uptake rates of 3T3-L1 adipocytes ([5]; positive control group versus control group, p < 0.001)
1 | C[C@H]1O[C@H](O[C@H]2[C@H](O)[C@@H](O)[C@@H](O[C@H]3[C@H](O)[C@@H](O)C(O)O[C@@H]3CO)O[C@@H]2CO)[C@H](O)[C@@H](O)[C@@H]1N[C@H]1C=C(CO)[C@@H](O)[C@H](O)[C@H]1O (some centres unmarked) [Acarbose, reference compound] | 99.4 ± 0.0 | – | – | – | – | – | – | –
2 | CC(=O)c1c(O)cc(O)cc1OC1OC(CO)C(O)C(O)C1O [Compound 3, 2,4,6-trihydroxy-acetophenone 2-O-β-D-glucoside] | – | > 80 | 1.97 ± 0.079 ^cd mol Trolox/mol | < 50 | – | – | – | –
3 | O=c1cc(-c2ccc(O)c(O)c2)oc2cc(O[C@@H]3O[C@H](CO)[C@@H](O)[C@H](O)[C@H]3O)cc(O)c12 [Compound 12, luteolin-7-O-β-D-glucopyranoside] | – | 7.28 ± 1.48 | 1.86 ± 0.075 ^de mol Trolox/mol | – | 1.31 ± 0.057 ^c mol Trolox/mol | 21.9 ± 6 | – | –
4 | COc1cc(-c2cc(=O)c3c(O)cc(O)cc3o2)cc(OC)c1O [Compound 10, tricin] | – | > 80 | 1.64 ± 0.14 ^e mol Trolox/mol | – | – | 20.8 ± 7.3 | – | –
5 | O=C(O)/C=C/c1ccc(O)c(O)c1 [Compound 5, caffeic acid] | – | 7.41 ± 0.74 | 2.15 ± 0.0619 ^abc mol Trolox/mol | < 50 | 1.73 ± 0.080 ^b mol Trolox/mol | – | weak effect | –
6 | O=C(O)/C=C/c1ccc(O)cc1 [Compound 4, p-coumaric acid] | – | > 80 | 2.28± 0.10 ^ab mol Trolox/mol | – | – | < 50 | – | –
7 | insulin | – | – | – | – | – | – | – | noticeably promoted
8 | COc1cc(/C=C/C(=O)OCC(O)CO)ccc1O (centres unmarked) [Compound 6, 1-O-feruloylglycerol] | – | > 80 | 1.80 ± 0.0462 ^de mol Trolox/mol | 5.3 ± 1.8 | 0.012 ± 0.014 ^d mol Trolox/mol | – | – | –
9 | O=C1O[C@H]([C@@H](O)CO)C(O)=C1O [Ascorbic acid, reference compound] | – | 19.8 ± 1.27 | 1.66 ± 0.050 ^e mol Trolox/mol | – | 1.68 ± 0.063 ^b mol Trolox/mol | – | – | –
10 | COc1cc(OC2OC(CO)C(O)C(O)C2O)cc(O)c1C(C)=O [Compound 2, 4-O-β-D-glucopyranosyl-2-hydroxy-6-methoxyacetophenone] | – | > 80 | 0.87 ± 0.11 ^f mol Trolox/mol | 22.6 ± 3.4 | – | – | – | –
11 | O=C(/C=C/c1ccc(O)cc1)OCC(O)COC(=O)/C=C/c1ccc(O)c(O)c1 (centres unmarked) [Compound 8, 1-O-p-coumaroyl-3-O-caffeoylglycerol] | – | 14.8 ± 1.83 | 1.70 ± 0.066 ^e mol Trolox/mol | 67 | 1.42 ± 0.073 ^c mol Trolox/mol | – | – | –
12 | O=C(/C=C/c1ccc(O)cc1)OCC(O)COC(=O)/C=C/c1ccc(O)cc1 [Compound 7, 1,3-O-di-p-coumaroylglycerol] | – | > 80 | 1.99 ± 0.11 ^cd mol Trolox/mol | 46.1 ± 2.4 | – | – | – | –
13 | COc1cc(O)cc(O)c1C(C)=O [Compound 1, 4,6-dihydroxy-2-methoxyacetophenone] | – | > 80 | 2.40 ± 0.16 ^a mol Trolox/mol | < 50 | – | – | – | –
14 | O=C(/C=C/c1ccc(O)c(O)c1)OCC(O)COC(=O)/C=C/c1ccc(O)c(O)c1 [Compound 9, 1,3-O-dicaffeoylglycerol] | – | 8.82 ± 1.12 | 2.065 ± 0.050 ^bcd mol Trolox/mol | 88.8 | 2.42 ± 0.10 ^a mol Trolox/mol | – | – | –
